Literature values in PMC8244136, “Integrin αvβ6-targeted MR molecular imaging of breast cancer in a xenograft mouse model” (Cancer Imaging, 2021).

Legend:
[1] = Text: (§1) Because of the significance of integrin αvβ6 in tumorigenesis and tumor progression, many pioneering experimental studies have focused on αvβ6-targeted ligands, including peptides and non-peptide inhibitors. More recently, a novel sub-nanomolar αvβ6-specific ligand, the nonapeptide cyclo [FRGDLAFp(NMe)K] (referred to as cFK-9) was identified, which is characterized by the RXDLXXL motif sequence.
integrin αvβ6 = settings: read-out: αvβ6 binding affinity IC50
Text: as §1

α5β1 = settings: selectivity against other integrins
Text: as §1

αIIbβ3 = settings: selectivity against other integrins
Text: as §1

αvβ3 = settings: selectivity against other integrins
Text: as §1

αvβ5 = settings: selectivity against other integrins
Text: as §1

Substance: cyclo [FRGDLAFp(NMe)K] (head to tail) [cFK-9, sub-nanomolar αvβ6-specific ligand, cyclic RGD nonapeptide with RXDLXXL motif]
- stability in human plasma [1]: very stable
- IC50 (integrin αvβ6): 0.26 nM
- IC50 (α5β1): 73 nM
- IC50 (αIIbβ3): > 1000 nM
- IC50 (αvβ3): 632 nM
- IC50 (αvβ5): > 1000 nM
